{"source": "DBAASP", "experiment_in_all_cases": "≥ marks a high value that may be exact or a test limit, other limits are often not marked, values filed in µg/mL are converted to µM", "key": {"[1]": {"system": "Listeria innocua CICC 10417"}, "[2]": {"system": "Bacillus subtilis CICC 10034"}, "[3]": {"system": "Escherichia coli CICC 10293"}, "[4]": {"system": "Staphylococcus aureus CICC 10384"}, "[5]": {"system": "Staphylococcus aureus CICC 10306"}, "[6]": {"system": "Escherichia coli CGMCC 3373"}, "[7]": {"system": "Serratia marcescens ATCC 4112"}, "[8]": {"system": "Pseudomonas aeruginosa CICC 21636"}, "[9]": {"system": "Bacillus megaterium CICC 10448"}, "[10]": {"system": "Salmonella enterica subsp. enterica serovar Paratyphi B CICC 10437"}, "[11]": {"system": "Alcaligenes faecalis ATCC 8750"}, "[12]": {"system": "Enterobacter cloacae CICC 21539"}, "[13]": {"system": "Escherichia coli CICC 10302"}, "[14]": {"system": "Escherichia coli CICC 10300"}, "Staphylococcus aureus": {"system": "Staphylococcus aureus"}, "Fusarium verticillioides": {"system": "Fusarium verticillioides"}, "Saccharomyces cerevisiae": {"system": "Saccharomyces cerevisiae"}, "Proteus vulgaris": {"system": "Proteus vulgaris"}, "[15]": {"system": "Listeria monocytogenes KCTC 3710"}, "[16]": {"system": "Aspergillus flavus KCTC 9471"}, "Trichosporon beigelii": {"system": "Trichosporon beigelii"}, "Pseudomonas aeruginosa": {"system": "Pseudomonas aeruginosa"}, "[17]": {"system": "Escherichia coli O157:H7 ATCC 43895"}, "Salmonella typhimurium": {"system": "Salmonella typhimurium"}, "[18]": {"system": "Candida albicans KCTC 7270"}, "[19]": {"system": "Staphylococcus epidermidis"}, "Bacillus subtilis": {"system": "Bacillus subtilis"}, "Botrytis cinerea": {"system": "Botrytis cinerea"}, "[20]": {"system": "Aspergillus fumigatus KCTC 6145"}, "Escherichia coli": {"system": "Escherichia coli"}, "[21]": {"system": "Staphylococcus aureus ATCC 25923"}, "[22]": {"system": "Escherichia coli ATCC 25922"}, "[23]": {"system": "Candida albicans NCTC 3179"}, "[24]": {"system": "Escherichia coli ATCC 11775"}, "[25]": {"system": "Escherichia coli ATCC 35218"}, "[26]": {"system": "Salmonella enterica subsp. enterica serovar Typhimurium ATCC 14028"}, "[27]": {"system": "Salmonella enterica subsp. enterica serovar Typhi Vi+"}, "[28]": {"system": "Escherichia coli K-12 594"}, "[29]": {"system": "Staphylococcus aureus ATCC 6538P"}, "[30]": {"system": "Staphylococcus aureus SR1550"}, "[31]": {"system": "Listeria monocytogenes ATCC 19114"}, "Bacillus cereus AS1.1846": {"system": "Bacillus cereus AS1.1846"}, "Klebsiella pneumoniae": {"system": "Klebsiella pneumoniae"}, "[32]": {"system": "Staphylococcus aureus NCTC 8325-4"}, "Escherichia coli K-12": {"system": "Escherichia coli K-12"}, "[33]": {"system": "Pseudomonas aeruginosa PA-W1"}, "[34]": {"system": "Pseudomonas aeruginosa PA-W14"}, "[35]": {"system": "Pseudomonas aeruginosa PAO1"}}, "data": [{"compound": "CC[C@H](C)[C@H](NC(=O)[C@H](C)N)C(=O)NCC(=O)N[C@@H](Cc1cnc[nH]1)C(=O)N[C@@H](CS)C(=O)N[C@@H](CC(C)C)C(=O)NCC(=O)N[C@@H](C)C(=O)N[C@H](C(=O)N[C@@H](CC(C)C)C(=O)O)[C@@H](C)O", "note": "[AIGHCLGATL]", "values": [{"measurement": "MIC", "setting": "[1]", "result": "≥ 33.5", "unit": "µM"}, {"measurement": "MIC", "setting": "[2]", "result": "≥ 33.5", "unit": "µM"}, {"measurement": "MIC", "setting": "[3]", "result": 8.38, "unit": "µM"}, {"measurement": "MIC", "setting": "[4]", "result": "≥ 33.5", "unit": "µM"}, {"measurement": "MIC", "setting": "[5]", "result": "≥ 33.5", "unit": "µM"}, {"measurement": "MIC", "setting": "[6]", "result": 8.38, "unit": "µM"}, {"measurement": "MIC", "setting": "[7]", "result": 8.38, "unit": "µM"}, {"measurement": "MIC", "setting": "[8]", "result": 4.19, "unit": "µM"}, {"measurement": "MIC", "setting": "[9]", "result": 8.38, "unit": "µM"}, {"measurement": "MIC", "setting": "[10]", "result": 8.38, "unit": "µM"}, {"measurement": "MIC", "setting": "[11]", "result": 8.38, "unit": "µM"}, {"measurement": "MIC", "setting": "[12]", "result": 4.19, "unit": "µM"}, {"measurement": "MIC", "setting": "[13]", "result": 8.38, "unit": "µM"}, {"measurement": "MIC", "setting": "[14]", "result": 8.38, "unit": "µM"}]}, {"compound": "CC[C@H](C)[C@H](NC(=O)[C@H](CCCCN)NC(=O)[C@H](CO)NC(=O)[C@H](Cc1ccccc1)NC(=O)[C@H](CC(C)C)NC(=O)[C@H](CCCCN)NC(=O)[C@H](CCC(=O)O)NC(=O)[C@H](CC(C)C)NC(=O)[C@H](CCCN=C(N)N)NC(=O)[C@H](CCCCN)NC(=O)[C@H](Cc1ccccc1)NC(=O)[C@@H](NC(=O)[C@H](CCCCN)NC(=O)[C@H](CCCCN)NC(=O)[C@H](C)N)C(C)C)C(=O)N[C@@H](CCC(N)=O)C(=O)N[C@@H](CC(N)=O)C(=O)N[C@@H](Cc1c[nH]c2ccccc12)C(=O)N[C@@H](CCCCN)C(N)=O", "note": "[AKKVFKRLEKLFSKIQNWK]", "values": [{"measurement": "MIC", "setting": "Staphylococcus aureus", "result": 3.13, "unit": "µM"}, {"measurement": "MIC", "setting": "Fusarium verticillioides", "result": 12.5, "unit": "µM"}, {"measurement": "MIC", "setting": "Saccharomyces cerevisiae", "result": 25, "unit": "µM"}, {"measurement": "MIC", "setting": "Proteus vulgaris", "result": 3.13, "unit": "µM"}, {"measurement": "MIC", "setting": "[15]", "result": 0.78, "unit": "µM"}, {"measurement": "MIC", "setting": "[16]", "result": "≥ 50", "unit": "µM"}, {"measurement": "MIC", "setting": "Trichosporon beigelii", "result": 1.56, "unit": "µM"}, {"measurement": "MIC", "setting": "Pseudomonas aeruginosa", "result": 3.13, "unit": "µM"}, {"measurement": "MIC", "setting": "[17]", "result": 6.25, "unit": "µM"}, {"measurement": "MIC", "setting": "Salmonella typhimurium", "result": 0.39, "unit": "µM"}, {"measurement": "MIC", "setting": "[18]", "result": 25, "unit": "µM"}, {"measurement": "MIC", "setting": "[19]", "result": 3.13, "unit": "µM"}, {"measurement": "MIC", "setting": "Bacillus subtilis", "result": 1.56, "unit": "µM"}, {"measurement": "MIC", "setting": "Botrytis cinerea", "result": 6.25, "unit": "µM"}, {"measurement": "MIC", "setting": "[20]", "result": "≥ 50", "unit": "µM"}, {"measurement": "MIC", "setting": "Escherichia coli", "result": 0.78, "unit": "µM"}]}, {"compound": "CC[C@H](C)[C@H](NC(=O)[C@H](CCCCN)NC(=O)[C@@H](NC(=O)[C@@H](NC(=O)[C@H](CO)NC(=O)[C@H](CC(=O)O)NC(=O)[C@@H](NC(=O)[C@H](CC(N)=O)NC(=O)[C@@H](N)CC(=O)O)[C@@H](C)O)C(C)C)C(C)C)C(=O)N[C@@H](CCC(N)=O)C(=O)N[C@@H](CO)C(=O)N[C@@H](Cc1c[nH]c2ccccc12)C(=O)N[C@@H](Cc1ccccc1)C(=O)N[C@@H](CCCN=C(N)N)C(=O)N[C@@H](CCSC)C(=O)N[C@@H](C)C(=O)N[C@H](C(=O)N[C@@H](C)C(=O)N[C@@H](CCCN=C(N)N)C(=O)N[C@@H](CCCCN)C(=O)N[C@@H](CO)C(=O)N[C@@H](Cc1ccc(O)cc1)C(=O)N[C@@H](CC(C)C)C(=O)O)[C@@H](C)O", "note": "[DNTDSVVKIQSWFRMATARKSYL]", "values": [{"measurement": "MIC", "setting": "[21]", "result": 26.5, "unit": "µM"}, {"measurement": "MIC", "setting": "[22]", "result": 1.25, "unit": "µM"}, {"measurement": "MIC", "setting": "[23]", "result": 25.8, "unit": "µM"}]}, {"compound": "CC[C@H](C)[C@H](NC(=O)[C@@H]1CCCN1C(=O)[C@H](CCCN=C(N)N)NC(=O)[C@@H]1CCCN1C(=O)[C@H](Cc1cnc[nH]1)NC(=O)[C@@H]1CCCN1C(=O)[C@@H]1CCCN1C(=O)[C@@H]1CCCN1C(=O)[C@H](CCCN=C(N)N)NC(=O)[C@@H]1CCCN1C(=O)[C@@H]1CCCN1C(=O)[C@H](Cc1ccc(O)cc1)NC(=O)[C@@H]1CCCN1C(=O)[C@H](CCCN=C(N)N)NC(=O)[C@@H]1CCCN1C(=O)[C@H](CCCCN)NC(=O)CN)C(=O)N[C@@H](CCCN=C(N)N)C(=O)N[C@H](C(=O)O)C(C)C", "note": "[GKPRPYPPRPPPHPRPIRV]", "values": [{"measurement": "MIC", "setting": "[24]", "result": 0.3, "unit": "µM"}, {"measurement": "MIC", "setting": "[25]", "result": 0.2, "unit": "µM"}, {"measurement": "MIC", "setting": "[26]", "result": 0.6, "unit": "µM"}, {"measurement": "MIC", "setting": "[27]", "result": 0.6, "unit": "µM"}, {"measurement": "MIC", "setting": "[22]", "result": 0.3, "unit": "µM"}]}, {"compound": "CC(C)C[C@H](NC(=O)[C@H](CC(C)C)NC(=O)[C@H](CC(C)C)NC(=O)[C@H](CC(C)C)NC(=O)[C@H](CC(C)C)NC(=O)[C@@H](N)CCCCN)C(=O)N[C@@H](CCCCN)C(N)=O", "note": "[KLLLLLK]", "values": [{"measurement": "MIC", "setting": "[28]", "result": 29.8, "unit": "µM"}, {"measurement": "MIC", "setting": "[29]", "result": 19, "unit": "µM"}, {"measurement": "MIC", "setting": "[30]", "result": "≥ 41.7", "unit": "µM"}]}, {"compound": "CC(C)[C@H](N)C(=O)N[C@@H](CO)C(=O)NCC(=O)N1CCC[C@H]1C(=O)N[C@@H](C)C(=O)NCC(=O)N1CCC[C@H]1C(=O)N1CCC[C@H]1C(=O)NCC(=O)N[C@H](C(=O)N[C@@H](Cc1cnc[nH]1)C(=O)O)[C@@H](C)O", "note": "[VSGPAGPPGTH]", "values": [{"measurement": "MIC", "setting": "[31]", "result": 16.4, "unit": "µM"}, {"measurement": "MIC", "setting": "Bacillus cereus AS1.1846", "result": 16.4, "unit": "µM"}]}, {"compound": "NCCCC[C@H](NC(=O)[C@H](CCCCN)NC(=O)[C@H](Cc1c[nH]c2ccccc12)NC(=O)[C@H](Cc1c[nH]c2ccccc12)NC(=O)[C@H](CCCCN)NC(=O)[C@H](CCCCN)NC(=O)[C@H](Cc1c[nH]c2ccccc12)NC(=O)[C@H](Cc1c[nH]c2ccccc12)NC(=O)[C@H](CCCCN)NC(=O)[C@H](CCCCN)NC(=O)[C@@H](N)Cc1c[nH]c2ccccc12)C(=O)N[C@@H](Cc1c[nH]c2ccccc12)C(N)=O", "note": "[WKKWWKKWWKKW]", "values": [{"measurement": "MIC", "setting": "Staphylococcus aureus", "result": 7.81, "unit": "µM"}, {"measurement": "MIC", "setting": "Klebsiella pneumoniae", "result": 15.6, "unit": "µM"}, {"measurement": "MIC", "setting": "[32]", "result": 7.81, "unit": "µM"}, {"measurement": "MIC", "setting": "Escherichia coli K-12", "result": 15.6, "unit": "µM"}, {"measurement": "MIC", "setting": "[33]", "result": 15.6, "unit": "µM"}, {"measurement": "MIC", "setting": "[34]", "result": 31.3, "unit": "µM"}, {"measurement": "MIC", "setting": "[35]", "result": 15.6, "unit": "µM"}]}]}
